Assay results: patent publication US20250353827A1, “INDOLINE DERIVATIVES AS SEROTONERGIC AGENTS USEFUL FOR THE TREATMENT OF DISORDERS RELATED THERETO” (MINDSET PHARMA INC., priority 2022, published 2025)
pEC50: −log10 of the molar value. Values joined by “and” are separate entries in the source; they are usually repeats but may differ in a detail not shown here. Equal values may be shown once.

Key:
[1] = biological target: T1, human 5-HT2A (h5-HT2A) receptor (Homo sapiens, UniProt P28223); test: FLIPR assay, human 5-HT2A receptor under agonist mode; type: cell-based; settings: for RFU@10 μM: 5-HT2A (FLIPR), RFU=Fmax−Fmin
T1 construct: expressed in transfected cells; cultured under G418 and hygromycin B selection
T1 sequence (P28223 whole entry): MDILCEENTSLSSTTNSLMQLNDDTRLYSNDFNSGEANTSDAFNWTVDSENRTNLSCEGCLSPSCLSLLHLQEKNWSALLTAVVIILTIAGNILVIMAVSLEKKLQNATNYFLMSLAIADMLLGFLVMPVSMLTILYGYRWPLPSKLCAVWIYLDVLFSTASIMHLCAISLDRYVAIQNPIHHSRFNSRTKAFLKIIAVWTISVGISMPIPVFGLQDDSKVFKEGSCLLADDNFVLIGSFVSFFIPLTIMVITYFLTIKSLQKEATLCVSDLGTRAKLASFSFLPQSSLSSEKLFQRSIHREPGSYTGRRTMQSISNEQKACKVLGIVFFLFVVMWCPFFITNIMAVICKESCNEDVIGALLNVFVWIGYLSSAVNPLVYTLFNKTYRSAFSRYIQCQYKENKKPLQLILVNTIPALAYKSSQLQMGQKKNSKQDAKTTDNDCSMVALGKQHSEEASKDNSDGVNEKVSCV
Experimental: I. Assessment of the Effect of Exemplary Compounds of Formula I Targeting on Human 5-HT2A (h5-HT2A) Receptor Under Agonist Mode
• 1. Cells were cultured in cell culture medium (DMEM containing 10% FBS, 1×penicillin-streptomycin 300 μg/ml G418 and 100 μg/ml hygromycin B) at 37° C., 5% (v/v) CO2. • 2. One day before the assays, the cells were detached using TrypLE™ Express and cells were counted using cell counter. Only cells with >85% viability were used for the assay. • 3. 20000 cells/well were seeded in 30 μl/well culture medium to a 384-well cell plate and cells were incubated overnight at 37° C., 5% (v/v) CO2. • 4. On the assay day, 2×dye solution was prepared following the manual of the FLIPR® Calcium 6 Assay Kit: i. The dye was diluted with assay buffer (20 mM HEPES in 1× HBSS, PH7.4); ii. Probenecid was added to the final concentration of 5 mM; iii. Vortex vigorously for 1-2 minutes. • 5. Medium was removed from cell plate by flicking the cell plate on towel papers. • 6. 10 μl of assay buffer and 10 μl of 2×dye solution was added to each well of the cell plate. • 7. The cell plate was placed on plate shaker, the plate was agitated at 600 rpm for 2 minutes. The plate was incubated at 37° C. for 2 hours followed by additional 15-minute incubation at 25° C. • 8. 3×compound in assay buffer was prepared: a. Reference compounds were diluted to required concentration with DMSO. The compounds were added to a 384-well compound plate; b. Serial dilutions were performed; c. 10 mM test compounds were added to the compound plate, and 3-fold serial dilutions were performed. d. Transfer 60 nl/well of compounds from source plate to a 384-well compound plate (Corning, 3657) by using an Echo; e. Add 20 μl/well assay buffer to the compound plate; f. Mix the plate on plate shaker for 2 mins; • 9. The cell plate, compound plate and tips were put into FLIPR, 10 μl of 3× compound was transferred to the cell plate per well with FLIPR.
• i. The normalized fluorescence reading (RFU) was calculated as shown below, where Fmax and Fmin stand for maximum and minimum of calcium signal during defined time window: RFU=Fmax−Fmin. • ii. Calculate the percentage activation using following equation:
[formula] • Iii. Calculate EC50 by fitting % activation against log of compound concentrations with Hill equation using XLfit.
Exemplary compounds of Formula I were evaluated functionally using FLIPR assay for their effect on h5-HT2A receptor under agonist mode.

[2] = Liver microsomes stability, rat
[3] = Liver microsomes stability, mouse
Experimental: (§1) The objective of this study was to estimate in vitro metabolic stability of representative compounds of the application in pooled human and male mouse liver microsomes. The concentrations of parent compounds in reaction systems were evaluated by LC-MS/MS for estimating the stability in pooled human and male mouse liver microsomes. The in vitro intrinsic clearances of test compounds were determined as well.
(§2) A master solution in the “Incubation Plate” containing phosphate buffer, ultra-pure H2O, MgCl2 solution and liver microsomes was made according to Table 3. The mixture was pre-warmed at 37° C. water bath for 5 minutes.
(§3) 40 μL of 10 mM NADPH solution was added to each well. The final concentration of NADPH was 1 mM. The negative control samples were prepared by replacing NADPH with 40 μL of ultra-pure H2O. Samples were prepared in duplicate. Negative controls were prepared in singlet.
(§4) The reaction was started with the addition of 4 μL of 200 μM test compounds or control compounds to each master solution to get the final concentration of 2 μM. This study was performed in duplicate.
(§5) Aliquots of 50 μL were taken from the reaction solution at 0, 15, 30, 45 and 60 minutes. The reaction solutions were stopped by the addition of 4 volumes of cold methanol with IS (100 nM alprazolam, 200 nM imipramine, 200 nM labetalol and 2 μM ketoprofen). Samples were centrifuged at 3,220 g for 40 minutes. Aliquot of 90 μL of the supernatant was mixed with 90 μL of ultra-pure H2O and then was used for LC-MS/MS analysis.
(§6) LC/MS analysis was performed for all samples from this study using a Shimadzu liquid chromatograph separation system equipped with degasser DGU-20A5R; solvent delivery unit LC-30AD; system controller SIL-30AC; column oven CTO-30A; CTC Analytics HTC PAL System. Mass spectrometric analysis was performed using a Triple Quad™ 5500 instrument.
(§7) All calculations were carried out using Microsoft Excel. Peak areas were determined from extracted ion chromatograms. The slope value, k, was determined by linear regression of the natural logarithm of the remaining percentage of the parent drug vs. incubation time curve.
(§8) The in vitro half-life (in vitro t1/2) was determined from the slope value:
(§9) Conversion of the in vitro t1/2 (min) into the in vitro intrinsic clearance (in vitro CLint, in μL/min/mg proteins) was done using the following equation (mean of duplicate determinations): […]

[4] = Liver microsomes stability, human; settings: for Remaining Percentage: human
Experimental: as §1, §2, §3, §4, §5, §6, §7, §8, §9

[5] = test system: Male, C57BL/6J mice; test: Mouse head twitch; type: in vivo; settings: for head twitches (mean): counted over 1 hr, male C57BL/6J mice
Experimental: The effect of different doses of representative compounds of Formula I were evaluated on head-twitch response (HTR) and other behavioural responses as behavior-based models of psychedelic activity.
Male, C57BL/6J mice (body weight range 20-30 g) were dosed with the appropriate dose of test article, and following a 1-minute pre-treatment time, placed in individual observation chambers. Animals were visually assessed for the incidence head twitches continuously over a 1 hr period. Head twitches were defined as a rapid jerk of the head which was not elicited by an external tactile stimulus (Come and Pickering, Psychopharmacologia, 1967, 11(1): 65-78). Each head twitch was individually counted by a trained observer, and the data was expressed as the mean±SEM of 6-10 mice per group. Mice were used in a single experiment only.
The head twitch response of exemplary compound II-1 (1-30 mg/kg SC) was compared to 5-MeO DMT and psilocybin (FIG. 1, Table 6).

For `COc1cc2c(cc1OC)C(CCN(C)C)CN2` (stereo not shown) [Compound I-33, 2-(5,6-Dimethoxyindolin-3-yl)-N,N-dimethylethan-1-amine], the “RFU@10 μM” value [1] was 286.
With `CN(C)CCc1c[nH]c2ccccc12` [DMT, N,N-dimethyltryptamine, reference compound] the “RFU@10 μM” value [1] was 381 and the pEC50 ([1]; EC50, 5-HT2A (FLIPR)) was 6.44.
For `O=C(O)Cc1ccccc1Nc1c(Cl)cccc1Cl` [Diclofenac], the T1/2 ([2]; rat liver microsomes, 2 μM, 0.5 mg/mL) was 14.62 min, the “Remaining Percentage” value ([2]; rat, With NADPH, 0 min) was 100.00% and the “Remaining Percentage” value ([2]; rat, With NADPH, 30 min) was 10.72%. The “Remaining Percentage” value ([2]; rat, With NADPH, 60 min) was 5.82%, the “Remaining Percentage” value ([2]; rat, Without NADPH, 0 min) was 100.00% and the “Remaining Percentage” value ([2]; rat, Without NADPH, 30 min) was 100.00%. For the same compound, the “Remaining Percentage” value ([2]; rat, Without NADPH, 60 min) was 96.90%, the “Predicted hepatic CL” value ([2]; rat, liver microsomes) was 41.66 mL/min/kg and the microsomal CLint at 2 μM ([2]; rat, liver microsomes) was 94.8 µL/min/mg. The half-life at 2 μM ([3]; male, mouse, microsomes) was 43.9 min, the microsomal CLint at 2 μM ([3]; male, mouse, microsomes) was 31.6 µL/min/mg and the “Predicted hepatic CL” value ([3]; mouse liver microsomes) was 54.52 mL/min/kg. The “Scaled-up CLint” value ([3]; mouse liver microsomes) was 138.28 mL/min/kg, the “Remaining Percentage” value ([3]; mouse, With NADPH, 0 min) was 100.00% and the “Remaining Percentage” value ([3]; mouse, With NADPH, 30 min) was 51.50%. The “Remaining Percentage” value ([3]; mouse, With NADPH, 60 min) was 38.74%, the “Remaining Percentage” value ([3]; mouse, Without NADPH, 0 min) was 100.00% and the “Remaining Percentage” value ([3]; mouse, Without NADPH, 30 min) was 105.81%. The “Remaining Percentage” value ([3]; mouse, Without NADPH, 60 min) was 102.49%, the “Predicted hepatic CL” value ([4]; human liver microsomes) was 18.43 mL/min/kg and the “Remaining Percentage” value ([4]; With NADPH, 0 min) was 100.00%. The “Remaining Percentage” value ([4]; With NADPH, 30 min) was 4.80%, the “Remaining Percentage” value ([4]; With NADPH, 60 min) was 1.80% and the “Remaining Percentage” value ([4]; Without NADPH, 0 min) was 100.00%. The “Remaining Percentage” value ([4]; Without NADPH, 30 min) was 91.86% and the “Remaining Percentage” value ([4]; Without NADPH, 60 min) was 91.86%.
For `CN(C)CCc1c[nH]c2cccc(O)c12` [Psilocin, psilocin, reference compound], the “RFU@10 μM” value [1] was 416 and 308.
With `CN(C)CCc1c[nH]c2cccc(OP(=O)(O)O)c12` [psilocybin] the “head twitches (mean)” value ([5]; 0.1 mg/kg SC) was 4.8, the “head twitches (mean)” value ([5]; 0.3 mg/kg SC) was 6.3 and the “head twitches (mean)” value ([5]; 1 mg/kg SC) was 16.3. The “head twitches (mean)” value ([5]; 3 mg/kg SC) was 7.8, the “head twitches (mean)” value ([5]; 10 mg/kg SC) was 5.5 and the “dose at which head twitch response reached a peak” value ([5]; SC, 0.1-10 mg/kg tested) was 1 mg/kg. For the same compound, the “other behavioural signs (locomotion, core body temperature, 5-HT syndrome) in words” value ([5]; SC, psilocybin 3 and 10 mg/kg, 5-MeO DMT 3-30 mg/kg, II-1 0.3-30 mg/kg) was “decreased locomotion and decreased core body temperature”.
